# Assay results published in BindingDB's records for patent US20260049084 (Gossamer Bio Services, 2026).
# Key:
# [1] = molecular target: T1, Ectonucleotide pyrophosphatase/phosphodiesterase family member 1 (Homo sapiens, UniProt P22413); assay: ENPP1 cGAMP Biochemical Assay
# T1 sequence (P22413 whole entry): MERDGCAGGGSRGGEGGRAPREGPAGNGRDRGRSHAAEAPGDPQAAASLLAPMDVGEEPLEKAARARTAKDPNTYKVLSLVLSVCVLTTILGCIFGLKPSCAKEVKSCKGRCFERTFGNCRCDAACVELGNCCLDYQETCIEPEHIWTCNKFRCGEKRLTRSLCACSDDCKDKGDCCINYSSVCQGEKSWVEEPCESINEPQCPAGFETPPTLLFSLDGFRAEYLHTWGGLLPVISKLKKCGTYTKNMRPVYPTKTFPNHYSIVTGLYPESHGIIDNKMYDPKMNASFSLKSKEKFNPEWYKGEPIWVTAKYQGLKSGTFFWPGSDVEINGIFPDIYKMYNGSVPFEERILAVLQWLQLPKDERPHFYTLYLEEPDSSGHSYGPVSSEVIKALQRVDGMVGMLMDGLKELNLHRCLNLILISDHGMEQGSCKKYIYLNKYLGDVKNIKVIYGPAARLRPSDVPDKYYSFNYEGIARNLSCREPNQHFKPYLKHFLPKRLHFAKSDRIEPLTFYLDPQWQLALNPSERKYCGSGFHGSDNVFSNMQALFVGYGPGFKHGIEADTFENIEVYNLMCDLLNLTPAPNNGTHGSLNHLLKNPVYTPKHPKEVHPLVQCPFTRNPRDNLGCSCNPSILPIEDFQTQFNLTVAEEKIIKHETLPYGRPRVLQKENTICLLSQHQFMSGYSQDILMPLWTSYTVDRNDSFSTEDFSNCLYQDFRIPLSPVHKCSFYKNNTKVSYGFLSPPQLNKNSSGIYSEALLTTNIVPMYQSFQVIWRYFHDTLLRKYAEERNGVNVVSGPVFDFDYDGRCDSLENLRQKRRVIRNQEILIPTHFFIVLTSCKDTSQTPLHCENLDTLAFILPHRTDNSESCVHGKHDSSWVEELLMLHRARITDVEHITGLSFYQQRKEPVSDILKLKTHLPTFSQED
# Experimental: Compounds were added to 384 well Proxiplate (PerkinElmer, Waltham MA) at 100 nl/well from DMSO stocks using Echo (Labcyte, San Jose CA). Recombinant human ENPP1 protein (R&D Systems, Minneapolis MN) was prepared in assay buffer (50 mM Tris pH7.5, 1 mM TCEP pH7.0, 2 mM MgCl2 and 0.005% Tween20) and added at 10 μl/well. The plate was sealed, centrifuged at 1000 rpm for 1 minute and incubated at room temperature for 30 minutes before 5 μl substrate 2′3′-cGAMP (R&D Systems, Minneapolis MN) in assay buffer was added to each well to a final concentration of 0.5 nM ENPP1 and 1000 nM 2′3′-cGAMP. The plate was sealed and centrifuged at 1000 rpm for 1 minute again. After incubation at 25° C. for 60 minutes, Terbium labelled AMP/GMP antibody and AMP/GMP HiLyte647 Tracer (BellBrook Labs, Fitchburg WI) in detection buffer (50 mM Tris pH7.5, 20 mM EDTA and 0.1% Prionex) were added to the reaction mixture to a final concentration of 2 nM (5 μl/well). The assay plate was incubated at room temperature for 120 minutes. TR-FRET signal was detected using Envision (PerkinElmer, Waltham MA).
# [2] = molecular target: T2, Ectonucleotide pyrophosphatase/phosphodiesterase family member 3 (Homo sapiens, UniProt O14638); assay: ENPP3 cGAMP Biochemical Assay
# T2 sequence (O14638 whole entry): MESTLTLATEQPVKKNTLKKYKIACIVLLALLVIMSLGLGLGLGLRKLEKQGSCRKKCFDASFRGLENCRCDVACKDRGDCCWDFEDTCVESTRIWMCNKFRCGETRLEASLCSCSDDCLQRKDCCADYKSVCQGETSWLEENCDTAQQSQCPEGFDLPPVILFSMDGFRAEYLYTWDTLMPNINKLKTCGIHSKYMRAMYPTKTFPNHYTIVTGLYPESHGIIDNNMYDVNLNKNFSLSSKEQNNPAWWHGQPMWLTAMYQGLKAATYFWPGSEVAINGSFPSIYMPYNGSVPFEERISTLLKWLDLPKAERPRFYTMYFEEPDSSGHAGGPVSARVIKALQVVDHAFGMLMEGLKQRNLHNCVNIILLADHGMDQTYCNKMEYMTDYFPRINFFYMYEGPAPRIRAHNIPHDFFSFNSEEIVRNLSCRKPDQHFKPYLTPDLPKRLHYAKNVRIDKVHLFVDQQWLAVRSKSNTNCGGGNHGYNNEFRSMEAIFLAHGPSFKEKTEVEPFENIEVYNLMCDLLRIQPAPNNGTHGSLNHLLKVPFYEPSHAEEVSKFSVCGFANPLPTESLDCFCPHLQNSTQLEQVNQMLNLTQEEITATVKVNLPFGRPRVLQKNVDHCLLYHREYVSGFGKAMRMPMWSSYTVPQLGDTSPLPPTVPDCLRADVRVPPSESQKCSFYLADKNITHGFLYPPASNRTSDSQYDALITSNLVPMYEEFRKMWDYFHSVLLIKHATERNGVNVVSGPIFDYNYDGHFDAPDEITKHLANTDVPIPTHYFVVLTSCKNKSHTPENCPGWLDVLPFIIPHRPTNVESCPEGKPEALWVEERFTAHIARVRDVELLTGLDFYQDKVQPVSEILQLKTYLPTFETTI
# Experimental: Compounds were added to 384 well Proxiplate (PerkinElmer, Waltham MA) at 100 nl/well from DMSO stocks using Echo (Labcyte, San Jose CA). Recombinant human ENPP3 protein (Acro Biosystems, Newwark DE) was prepared in assay buffer (50 mM Tris pH7.5, 1 mM TCEP pH7.0, 2 mM MgCl2, 2 mM CaCl2), 2 mM ZnCl2 and 0.005% Tween20) and added at 2 μl/well. […] The plate was sealed and centrifuged at 1000 rpm for 1 minute again. […] The assay plate was incubated at room temperature for 120 minutes. TR-FRET signal was detected using Envision (PerkinElmer, Waltham MA).
# Carbonic anhydrase 2 = Carbonic anhydrase 2 (Homo sapiens, UniProt P00918); assay: Carbonic Anhydrase 2 Enzymatic Assay
# Experimental: (§1) Test compound and/or vehicle was preincubated with carbonic anhydrase II enzyme (15 μg/ml) isolated from human erythrocyte in reaction buffer (50 mM MOPS solution pH 7.5) for 15 minutes at 25° C. The reaction was initiated by addition of 500 μM 4-nitrophenyl acetate and incubated for 30 minutes. The plate was read on a spectrophotometer (Absorbance: 400 nm).
# Carbonic anhydrase 1 = Carbonic anhydrase 1 (Homo sapiens, UniProt P00915); assay: Carbonic Anhydrase 1 Enzymatic Assay
# Carbonic anhydrase 1, sequence (P00915 whole entry): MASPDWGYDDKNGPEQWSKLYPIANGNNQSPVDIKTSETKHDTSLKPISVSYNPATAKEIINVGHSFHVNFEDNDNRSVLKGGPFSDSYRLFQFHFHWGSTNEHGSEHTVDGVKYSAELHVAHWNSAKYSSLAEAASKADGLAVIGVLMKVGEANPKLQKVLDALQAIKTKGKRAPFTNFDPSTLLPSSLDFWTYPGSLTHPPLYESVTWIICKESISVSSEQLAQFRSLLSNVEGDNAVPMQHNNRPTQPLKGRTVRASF
# Experimental: as §1, with “I” for “II”, “nm)” for “nm).”
IC50 [1],IC50 [2],IC50 (Carbonic anhydrase 2),IC50 (Carbonic anhydrase 1),SMILES
< 10 nM,> 1000 nM,–,–,"CCn1nc(Cl)c2c(NCC3CCN(S(=N)(=O)CCNC(C)=O)CC3)ccnc21 (centres undefined) [US20260049084, Compound 14K]"
–,–,> 1000 nM,> 1000 nM,"CN=[S@](N)(=O)N1CCC(CNc2ccnc3c2c(Cl)nn3CC#N)CC1 [US20260049084, Compound 15G]"
